Experimental data as given in patent US11912679B2, “Aryl alkynamide derivatives” (Astellas Pharma, Inc., priority 2022, dated 2024).
pIC50: −log10 of the molar value.

Columns and labels:
saliva production = assay: Test on drug-induced Sjogren's syndrome-like salivary dysfunction in mice; format: in vivo; conditions: female C57BL/6J mice, DMXAA 20 mg/kg s.c. four times weekly, test compound oral once a day for 8 days
Procedure: Female C57BL/6J mice (8-10-weeks-old) were injected subcutaneously with 20 mg/kg of DMXAA or its vehicle, 5% NaHCO3, four times at weekly intervals. From the day after the last DMXAA challenge, mice were orally administered the test compound or its vehicle once a day for 8 days. On the following day, saliva was collected from mice using a cotton swab under awake conditions, and saliva weight during 15 min was measured and evaluated as an indicator of salivary gland function.

IFNβ production = assay: Test on IFNβ production in mice plasma (DMXAA-induced); format: in vivo; conditions: male C57BL/6J mice, 1 mg/kg oral, DMXAA 20 mg/kg i.p. after 1 hour, plasma 4 hours later
Procedure: Male C57BL/6J mice (8-12-weeks-old) were administered orally either vehicle or 1 mg/kg of test compounds. After 1 hour, 5,6-Dimethylxanthenone-4-acetic acid (DMXAA) (BLD Pharmatech Ltd, BD126695) was administered intraperitoneally at a dose of 20 mg/kg. Four hours later, the mice were euthanized, and the plasma was collected. Plasma concentration of IFNβ was measured by an enzyme-linked immunosorbent assay method using an AlphaLISA Mouse IFNβ Detection Kit (Parkin Elmer, AL586C), and the inhibition ratio to the vehicle administration group was calculated.

IRF pathway of THP-1 = assay: Test on the activity of IRF pathway of THP-1 (THP1-Dual reporter cells stimulated with 2'3'-cGAMP); format: cell-based; conditions: Homo sapiens, PMA-treated, 2'3'-cGAMP 5 ug/mL, QUANTI-Luc readout, read-out: IC50 of inhibition of the activity of IRF pathway
Procedure: 0.3 uM of PMA (phorbol myristate acetate, SIGMA, P1585) was added to THP1-Dual™ cells (NF-κB-SEAP IRF-Luc Reporter Monocytes, Invivogen, thpd-nfis), and the cells were cultured at 37° C. for 1 day in RPMI1640 with 10% Fetal Bovine Serum (FBS). A compound with a known concentration was added, and the cells were incubated at room temperature for 1 hour. Mammalian (non-canonical) CDN, cyclic [G(2′,5′)pA(3′,5′)p] (2′3′-cGAMP, Invivogen, tlrl-nacga23) was added to a final concentration of 5 ug/mL, and the cells were cultured at 37° C. On the following day, QUANTI-Luc™ (Secreted luciferase detection medium, Invivogen, rep-qlc) was added to the culture solution and the activity of IRF pathway was measured using a microplate reader. The inhibition ratio at each concentration was determined, where the activity of IRF pathway with no addition of the test compound or 2′3′-cGAMP was defined as 100% inhibition and the activity of IRF pathway with no addition of the test compound and with addition of 2′3′-cGAMP was defined as 0% inhibition. The IC50 value was calculated by sigmoid […] model non-linear regression analysis.

| SMILES | pIC50 (IRF pathway of THP-1) | saliva production (saliva weight during 15 min) (saliva production) | Inh (%): inhibition ratio of the production of IFNβ to the vehicle administration group (IFNβ production) |
| --- | --- | --- | --- |
| O=C(C#Cc1ccc(-c2ccccc2)c(C(F)(F)F)c1)N1C[C@@H](O)[C@H](O)C1 [Example 43, 1-[(3R,4R)-3,4-dihydroxypyrrolidin-1-yl]-3-[2-(trifluoromethyl)[1,1′-biphenyl]-4-yl]prop-2-yn-1-one] | 6.70 |  | 87% |
| O=C(C#Cc1ccc(-c2ccccc2)c(C(F)(F)F)c1)N1C[C@H](O)[C@@H](O)C1 [Example 44, 1-[(3S,4S)-3,4-dihydroxypyrrolidin-1-yl]-3-[2-(trifluoromethyl)[1,1′-biphenyl]-4-yl]prop-2-yn-1-one] | 6.76 |  | 82% |
| N=S1(=O)CCN(C(=O)C#Cc2ccc(-c3ccccc3)c(C(F)(F)F)c2)CC1 [Example 99, 1-imino-4-{3-[2-(trifluoromethyl)[1,1′-biphenyl]-4-yl]prop-2-ynoyl}-1λ^6-thiomorpholin-1-one] | 6.99 | significantly improved saliva production | 68% |
| CN(C)c1cc(C#CC(=O)N2C[C@@H](O)[C@@H](O)C2)ccc1-c1ccccc1C(F)(F)F [Example 110] | 5.92 |  |  |
| Cc1cc(C#CC(=O)N2C[C@@H](O)[C@@H](O)C2)ccc1-c1ccccc1C(F)(F)F [Example 112] | 6.05 |  |  |
| O=C(C#Cc1ccc(-c2ccccc2)c(OC(F)F)c1)NC[C@H](O)CO [Example 113] | 6.16 |  |  |
| O=C(C#Cc1cnc(-c2ccccc2C(F)(F)F)cn1)N1C[C@@H](O)[C@@H](O)C1 [Example 116] | 6.37 |  |  |
| O=C(C#Cc1ccc(-c2ccccc2C(F)(F)F)c2ncccc12)N1C[C@@H](O)[C@@H](O)C1 [Example 117] | 5.55 |  |  |
| O=C(C#Cc1ccc(-c2ccccc2C(F)(F)F)nn1)N1C[C@@H](O)[C@@H](O)C1 [Example 118] | 6.08 |  |  |
| NC(=O)c1cc(C#CC(=O)N2C[C@@H](O)[C@@H](O)C2)ccc1-c1ccccc1C(F)(F)F [Example 119, 4-{3-[(3R,4S)-3,4-dihydroxypyrrolidin-1-yl]-3-oxoprop-1-yn-1-yl}-2′-(trifluoromethyl)[1,1′-biphenyl]-2-carboxamide] | 5.28 |  |  |
| O=C(C#Cc1ccc(-c2ccccc2)c(O)c1)N1C[C@@H](O)[C@@H](O)C1 [Example 121] | 5.11 |  |  |
| COc1ncc(-c2ccc(C#CC(=O)N3C[C@@H](O)[C@@H](O)C3)cc2C(F)(F)F)cn1 [Example 122] | 5.51 |  |  |
| CS(=O)(=O)NCc1cc(C#CC(=O)N2C[C@@H](O)[C@@H](O)C2)ccc1-c1ccccc1C(F)(F)F [Example 124] | 5.70 |  |  |
| CS(=N)(=O)CCNC(=O)C#Cc1ccc(-c2ccccc2)c(C(F)(F)F)c1 (stereo not shown) [Example 125] | 6.49 |  |  |
| C#CCOc1ccccc1-c1ccc(C#CC(=O)N2C[C@@H](O)[C@@H](O)C2)cc1C(F)(F)F [Example 129, 1-[(3R,4S)-3,4-dihydroxypyrrolidin-1-yl]-3-{2′-[(prop-2-yn-1-yl)oxy]-2-(trifluoromethyl)[1,1′-biphenyl]-4-yl}prop-2-yn-1-one] | 6.62 |  |  |
| CS(=O)(=O)NCCCN(CCO)C(=O)C#Cc1ccc(-c2ccccc2)c(C(F)(F)F)c1 [Example 130, N-(2-hydroxyethyl)-N-{3-[(methanesulfonyl)amino]propyl}-3-[2-(trifluoromethyl)[1,1′-biphenyl]-4-yl]prop-2-ynamide] | 6.37 |  |  |
| O=C(C#Cc1ccc(-c2ccccc2C(F)(F)F)cc1)N1C[C@@H](O)[C@@H](O)C1 [Example 131, 1-[(3R,4S)-3,4-dihydroxypyrrolidin-1-yl]-3-[2′-(trifluoromethyl)[1,1′-biphenyl]-4-yl]prop-2-yn-1-one] | 6.24 |  |  |
| N=S1(=O)CCN(C(=O)C#Cc2cnc(-c3ccc(Cl)cc3C(F)(F)F)nc2)CC1 [Example 132] | 6.75 |  |  |

Continued by rising pIC50 (IRF pathway of THP-1), values first:

| pIC50 (IRF pathway of THP-1) | SMILES | saliva production (saliva weight during 15 min) (saliva production) | Inh (%): inhibition ratio of the production of IFNβ to the vehicle administration group (IFNβ production) |
| --- | --- | --- | --- |
| 5.31 | O=C(C#Cc1cn(-c2ccc(F)cc2)c(C(F)(F)F)n1)NC[C@H](O)CO [Example 115] |  |  |
| 5.98 | COc1cc(C#CC(=O)N2C[C@@H](O)[C@@H](O)C2)ccc1-c1ccccc1C(F)(F)F [Example 111] |  |  |
| 6.14 | O=C(C#Cc1ccc(-c2ccccc2C(F)(F)F)c(CO)c1)N1C[C@@H](O)[C@@H](O)C1 [Example 133, 1-[(3R,4S)-3,4-dihydroxypyrrolidin-1-yl]-3-[2-(hydroxymethyl)-2′-(trifluoromethyl)[1,1′-biphenyl]-4-yl]prop-2-yn-1-one] |  |  |
| 6.21 | O=C(C#Cc1ccc(-c2ccccc2)c(C(F)(F)F)c1)NC[C@@H](O)CO [Example 36, N-[(2R)-2,3-dihydroxypropyl]-3-[2-(trifluoromethyl)[1,1′-biphenyl]-4-yl]prop-2-ynamide] |  | 85% |
| 6.28 | CN[C@@H]1CCN(C(=O)C#Cc2ccc(-c3ccccn3)c(C(F)(F)F)c2)C1 [Example 127, 1-[(3R)-3-(methylamino)pyrrolidin-1-yl]-3-[4-(pyridin-2-yl)-3-(trifluoromethyl)phenyl]prop-2-yn-1-one] |  |  |
| 6.33 | O=C(C#Cc1ccc(-c2ccccc2)c(C(F)(F)F)c1)NC[C@H](O)CO [Example 35, N-[(2S)-2,3-dihydroxypropyl]-3-[2-(trifluoromethyl)[1,1′-biphenyl]-4-yl]prop-2-ynamide] |  | 83% |
| 6.43 | CC(C)Oc1cc(C#CC(=O)N2C[C@@H](O)[C@@H](O)C2)ccc1-c1ccccc1C(F)(F)F [Example 126] |  |  |
| 6.47 | O=C(C#Cc1ccc(-c2ccccc2)c(C(F)(F)F)c1)NCCNS(=O)(=O)CCO [Example 114] |  |  |
| 6.49 | N#Cc1cc(C#CC(=O)N2C[C@@H](O)[C@@H](O)C2)ccc1-c1ccccc1 [Example 120] |  |  |
| 6.64 | NC(=O)C1CCN(C(=O)C#Cc2ccc(-c3ccccc3)c(C(F)(F)F)c2)CC1 [Example 34, 1-{3-[2-(trifluoromethyl)[1,1′-biphenyl]-4-yl]prop-2-ynoyl}piperidine-4-carboxamide] | significantly improved saliva production | 90% |
| 6.82 | O=C(C#Cc1ccc(-c2ccccc2)c(C(F)(F)F)c1)N1CC(CO)(CO)C1 [Example 46, 1-[3,3-bis(hydroxymethyl)azetidin-1-yl]-3-[2-(trifluoromethyl)[1,1′-biphenyl]-4-yl]prop-2-yn-1-one] |  | 69% |
| 6.84 | CN(Cc1cc(C#CC(=O)N2C[C@@H](O)[C@@H](O)C2)ccc1-c1ccccc1C(F)(F)F)C1CC1 [Example 123] |  |  |
| 6.87 | O=C(C#Cc1ccc(-c2ccccc2)c(C(F)(F)F)c1)N1C[C@@H](O)[C@@H](O)C1 [Example 33, 1-[(3R,4S)-3,4-dihydroxypyrrolidin-1-yl]-3-[2-(trifluoromethyl)[1,1′-biphenyl]-4-yl]prop-2-yn-1-one] | significantly improved saliva production | 92% |
| 6.95 | O=C(C#Cc1ccc(-c2ccccc2C(F)(F)F)c(Cl)c1)N1C[C@@H](O)[C@@H](O)C1 [Example 109] |  |  |
